Laboratory results: article PMC6270065, “Virtual Screening and Structure-Based Discovery of Indole Acylguanidines as Potent β-secretase (BACE1) Inhibitors” (Molecules, 2013)
Read-outs that look alike come from different tables or passages of the source.

Molecular target: T1, BACE1 (Homo sapiens, UniProt P56817)
T1 construct: purchased Invitrogen P2985
Assay: BACE1 fluorescence resonance energy transfer (FRET) based enzymatic inhibition assay
Assay type: biochemical
Conditions: for Inhibition ratio (100 μM): compound concentration 100 μM, Table 1; for inhibition ratio: ligand concentration of 100 μM; for inhibition at 100 µM: compound concentration 100 µM
Experimental: 3.3. Fluorescence Resonance Energy Transfer (FRET) Based Enzymatic Assay
The BACE1 fluorescence resonance energy transfer assay kit was purchased from Invitrogen (Carlsbad, CA, USA, cat. P2985). BACE1 activity assays were carried out following the manufacturer’s protocol. The enzyme, substrate, and compounds were diluted in a reaction buffer (50 mM sodium acetate, pH 4.5) to make 3× working solutions. The assay was carried out in a black 384-well microplate with a final volume of 30 μL which contains each 10 μL of 3× substrate, enzyme, and compound stocks, respectively. The final concentration of DMSO is less than 3% (v/v). The reaction mixture was incubated at 37 °C for 90 min with oscillation. Then, 10 μL of a stop solution (2.5 M sodium acetate) was added to stop the reaction. Finally, the fluorescent intensity of the enzymatic product was measured at Ex/Em = 535 nm/585 nm on a BioTek SYNERGY4 reader (BioTek, Winooski, VT, USA). Triplicate was run for each assay. IC50 values were calculated from the concentration–inhibition curves by nonlinear regression analysis. Eight concentrations were tested for each compound to produce the concentration–inhibition curve.

T1 sequence (P56817 46-501): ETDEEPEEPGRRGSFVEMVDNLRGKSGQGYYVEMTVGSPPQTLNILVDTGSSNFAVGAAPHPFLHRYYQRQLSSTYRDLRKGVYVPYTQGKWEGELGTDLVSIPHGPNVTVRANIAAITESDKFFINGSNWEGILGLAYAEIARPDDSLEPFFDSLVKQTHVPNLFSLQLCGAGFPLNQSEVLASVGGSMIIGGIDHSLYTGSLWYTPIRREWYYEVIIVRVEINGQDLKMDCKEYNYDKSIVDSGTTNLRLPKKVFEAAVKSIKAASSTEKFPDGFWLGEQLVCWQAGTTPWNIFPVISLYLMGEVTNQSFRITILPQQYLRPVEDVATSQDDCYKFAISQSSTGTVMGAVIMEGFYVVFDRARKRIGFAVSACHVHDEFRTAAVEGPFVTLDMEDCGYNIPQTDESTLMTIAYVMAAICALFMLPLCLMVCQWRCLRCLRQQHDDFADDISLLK

Inhibition ratio (100 μM) | inhibition at 100 µM (Table 2) | SMILES | further results
77.00% |  | N=C(N)NC(=O)Cn1ccc2ccccc21 [Compound 5, N-Carbamimidoyl-2-(1H-indol-1-yl)acetamide] | inhibition ratio: 77%
92.2% |  | CC(C)C(=O)Nc1c(Cl)cc(CNC(=N)NC(=O)Cn2ccc3ccccc32)cc1Cl [Compound 21, N-(4-((3-(2-(1H-Indol-1-yl)acetyl)guanidino)methyl)-2,6-dichlorophenyl)isobutyramide] | IC50: 1.72 ± 0.21 µM
66.51% |  | N=C(NCc1cccc(OC(F)(F)F)c1)NC(=O)Cn1ccc2ccccc21 [Compound 16, 2-(1H-Indol-1-yl)-N-(N-(3-(trifluoromethoxy)benzyl)carbamimidoyl)acetamide] | 
58.75% |  | COc1cccc(CNC(=N)NC(=O)Cn2ccc3ccccc32)c1 [Compound 14, 2-(1H-Indol-1-yl)-N-(N-(3-methoxybenzyl)carbamimidoyl)acetamide] | 
100% |  | N=C(NCc1cc(Cl)cc(Cl)c1)NC(=O)Cn1ccc2ccccc21 [Compound 17, N-(N-(3,5-Dichlorobenzyl)carbamimidoyl)-2-(1H-indol-1-yl)acetamide] | IC50: 8.75 ± 1.07 µM
85.24% |  | N=C(NCc1cccc(I)c1)NC(=O)Cn1ccc2ccccc21 [Compound 13, 2-(1H-Indol-1-yl)-N-(N-(3-iodobenzyl)carbamimidoyl)acetamide] | 
40.69% |  | N=C(NCc1ccccc1)NC(=O)Cn1ccc2ccccc21 [Compound 12] | 
 | 99.5% | CC(=O)Nc1c(Cl)cc(CNC(=N)NC(=O)Cn2ccc3cc(C#N)ccc32)cc1Cl [Compound 24, N-(N-(4-Acetamido-3,5-dichlorobenzyl)carbamimidoyl)-2-(5-cyano-1H-indol-1-yl)acetamide] | IC50 (Table 2): 0.057 ± 0.004 µM
52.38% |  | N=C(NCc1cc(F)cc(F)c1)NC(=O)Cn1ccc2ccccc21 [Compound 15, N-(N-(3,5-Difluorobenzyl)carbamimidoyl)-2-(1H-indol-1-yl)acetamide] | 
 | 103% | COc1ccc2ccn(CC(=O)NC(=N)NCc3cc(Cl)c(NC(C)=O)c(Cl)c3)c2c1 [Compound 27, N-(N-(4-Acetamido-3,5-dichlorobenzyl)carbamimidoyl)-2-(6-methoxy-1H-indol-1-yl)acetamide] | IC50 (Table 2): 0.224 ± 0.033 µM

More lines, now with the values behind:

SMILES | Inhibition ratio (100 μM) | inhibition at 100 µM (Table 2) | further results
N=C(N)NCCn1ccc2ccccc21 [Compound 4, 1-(2-(1H-indol-1-yl)ethyl)guanidine] |  |  | IC50: > 100 µM; inhibition ratio: about 42%
CC(=O)Nc1c(Cl)cc(CNC(=N)NC(=O)Cn2ccc3cc(Br)ccc32)cc1Cl [Compound 22, N-(N-(4-Acetamido-3,5-dichlorobenzyl)carbamimidoyl)-2-(5-bromo-1H-indol-1-yl)acetamide] |  | 109% | IC50 (Table 2): 0.106 ± 0.013 µM
CC(=O)Nc1c(Cl)cc(CNC(=N)NC(=O)Cn2ccc3ccccc32)cc1Cl [Compound 19, N-(N-(4-Acetamido-3,5-dichlorobenzyl)carbamimidoyl)-2-(1H-indol-1-yl)acetamide] | 100% | 100% | IC50: 1.01 ± 0.091 µM
CC(=O)Nc1c(Cl)cc(CNC(N)=NC(=O)Cn2ccc3ccc(CN(C)S(C)(=O)=O)cc32)cc1Cl [Compound 28] |  | 100% | IC50 (Table 2): 0.84 ± 0.101 µM
CC(=O)Nc1c(Cl)cc(CNC(=N)NC(=O)Cn2ccc3ccc(Br)cc32)cc1Cl [Compound 23, N-(N-(4-Acetamido-3,5-dichlorobenzyl)carbamimidoyl)-2-(6-bromo-1H-indol-1-yl)acetamide] |  | 100% | IC50 (Table 2): 0.079 ± 0.008 µM
CCNc1c(Cl)cc(CNC(=N)NC(=O)Cn2ccc3ccccc32)cc1Cl [Compound 20, N-(N-(3,5-Dichloro-4-(ethylamino)benzyl)carbamimidoyl)-2-(1H-indol-1-yl)acetamide] | 46.8% |  | 
CC(=O)Nc1ccc(CNC(=N)NC(=O)Cn2ccc3ccccc32)cc1 [Compound 18, N-(N-(4-Acetamidobenzyl)carbamimidoyl)-2-(1H-indol-1-yl)acetamide] | 35.3% |  | 
